Results reported in ChEMBL document CHEMBL1287762, “Synthesis and biological evaluation of 3-[4-(amino/methylsulfonyl)phenyl]methylene-indolin-2-one derivatives as novel COX-1/2 and 5-LOX inhibitors” (Bioorg Med Chem Lett, 2010).

Legend:
[1] = target: T1, Prostaglandin G/H synthase 2 (Oryctolagus cuniculus, UniProt O02768); experiment: Inhibition of COX-2 in rabbit peripheral venous blood assessed as formation of 12-hydroxyheptadecatrienoic acid after 24 hrs in by HPLC presence of calcium ionophore […] and lipopolysaccharide; assay type: tissue-based
T1 sequence (O02768 whole entry): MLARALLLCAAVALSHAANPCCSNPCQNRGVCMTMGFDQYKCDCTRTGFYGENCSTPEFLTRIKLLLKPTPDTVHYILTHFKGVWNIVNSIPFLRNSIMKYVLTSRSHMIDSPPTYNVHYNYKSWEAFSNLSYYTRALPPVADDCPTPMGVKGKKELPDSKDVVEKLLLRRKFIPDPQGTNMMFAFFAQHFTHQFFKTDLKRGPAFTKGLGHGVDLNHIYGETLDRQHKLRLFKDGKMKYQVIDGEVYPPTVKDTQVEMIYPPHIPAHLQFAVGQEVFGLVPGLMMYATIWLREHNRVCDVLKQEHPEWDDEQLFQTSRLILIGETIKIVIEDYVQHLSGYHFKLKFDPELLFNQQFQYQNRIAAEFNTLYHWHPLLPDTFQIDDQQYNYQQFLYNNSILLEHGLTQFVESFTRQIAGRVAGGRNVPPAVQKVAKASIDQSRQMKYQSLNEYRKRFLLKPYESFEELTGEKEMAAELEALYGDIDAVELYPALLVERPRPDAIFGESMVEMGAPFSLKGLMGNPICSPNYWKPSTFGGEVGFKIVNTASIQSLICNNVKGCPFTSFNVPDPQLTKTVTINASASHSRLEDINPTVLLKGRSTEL

Rattus norvegicus [2] = experiment: Antiinflammatory activity in Wistar rat assessed as inhibition of carrageenan-induced paw edema at 11.48 mg/kg, po administered 1 hr before carrageenan challenge measured at 3 hrs by plethysmometer; assay type: functional
Mus musculus [3] = experiment: Analgesic activity in BALB/c mouse assessed as inhibition of acetic acid-induced writhing response for 15 mins at 22.96 mg/kg, po; assay type: functional; conditions: 0.25 h
[4] = Inhibition of 5-LOX in rabbit peripheral venous blood assessed as formation of […] after 30 mins by HPLC; assay type: tissue-based, Oryctolagus cuniculus
Rattus norvegicus [5] = experiment: Antiinflammatory activity in Wistar rat assessed as inhibition of carrageenan-induced paw edema at 11.48 mg/kg, po administered 1 hr before carrageenan challenge measured at 6 hrs by plethysmometer; assay type: functional
Rattus norvegicus [6] = experiment: Antiinflammatory activity in Wistar rat assessed as inhibition of carrageenan-induced paw edema at 11.48 mg/kg, po administered 1 hr before carrageenan challenge measured at 1 hr by plethysmometer; assay type: functional
Oryctolagus cuniculus = organism: Oryctolagus cuniculus; experiment: Selectivity ratio, IC50 for COX-1in rabbit peripheral venous blood to IC50 for COX-2 in rabbit peripheral venous blood; assay type: tissue-based
[7] = target: T2, Prostaglandin G/H synthase 1 (Oryctolagus cuniculus, UniProt O97554); experiment: Inhibition of COX-1 in rabbit peripheral venous blood assessed as formation of 12-hydroxyheptadecatrienoic acid after 24 hrs by HPLC in presence of calcium ionophore A23187
T2 sequence (O97554 whole entry): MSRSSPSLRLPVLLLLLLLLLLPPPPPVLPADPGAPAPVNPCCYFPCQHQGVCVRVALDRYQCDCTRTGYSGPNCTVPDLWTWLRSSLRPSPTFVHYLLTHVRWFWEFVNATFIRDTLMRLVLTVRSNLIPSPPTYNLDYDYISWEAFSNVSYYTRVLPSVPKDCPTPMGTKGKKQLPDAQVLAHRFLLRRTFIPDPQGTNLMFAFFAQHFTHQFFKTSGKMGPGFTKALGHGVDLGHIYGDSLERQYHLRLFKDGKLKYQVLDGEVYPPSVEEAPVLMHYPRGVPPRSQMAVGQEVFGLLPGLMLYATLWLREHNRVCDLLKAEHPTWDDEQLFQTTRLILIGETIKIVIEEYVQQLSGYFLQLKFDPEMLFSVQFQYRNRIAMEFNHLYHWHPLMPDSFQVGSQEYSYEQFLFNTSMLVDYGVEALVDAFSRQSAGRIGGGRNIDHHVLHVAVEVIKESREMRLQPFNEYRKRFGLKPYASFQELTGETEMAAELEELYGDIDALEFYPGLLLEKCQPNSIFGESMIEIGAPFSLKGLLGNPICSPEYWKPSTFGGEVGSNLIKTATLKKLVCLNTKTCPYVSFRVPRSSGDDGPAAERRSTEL

Rattus norvegicus [8] = experiment: Ulcerogenic effect in Wistar rat assessed as gastric ulcer area at 11.48 mg/kg, po administered for 7 days by microscopy; assay type: toxicity, organism-based, Stomach; design: dose 11.48 mg/kg, route oral; conditions: in vivo, 168 h
Rattus norvegicus [9] = experiment: Antiinflammatory activity in Wistar rat assessed as inhibition of carrageenan-induced paw edema at 10.44 mg/kg, po administered 1 hr before carrageenan challenge measured at 1 hr by plethysmometer; assay type: functional
Rattus norvegicus [10] = experiment: Ulcerogenic effect in Wistar rat assessed as gastric ulcer area at 10.44 mg/kg, po administered for 7 days by microscopy; assay type: toxicity, organism-based, Stomach; design: dose 10.44 mg/kg, route oral; conditions: in vivo, 168 h
Rattus norvegicus [11] = experiment: Antiinflammatory activity in Wistar rat assessed as inhibition of carrageenan-induced paw edema at 10.44 mg/kg, po administered 1 hr before carrageenan challenge measured at 6 hrs by plethysmometer; assay type: functional
Rattus norvegicus [12] = experiment: Antiinflammatory activity in Wistar rat assessed as inhibition of carrageenan-induced paw edema at 10.44 mg/kg, po administered 1 hr before carrageenan challenge measured at 3 hrs by plethysmometer; assay type: functional
Mus musculus [13] = experiment: Analgesic activity in BALB/c mouse assessed as inhibition of acetic acid-induced writhing response for 15 mins at 20.88 mg/kg, po; assay type: functional; conditions: 0.25 h

IC50 [1] [nM] | IC50 [4] [nM] | IC50 [7] [nM] | SMILES | inhibition in vivo at 11.48 mg/kg (Rattus norvegicus [2]) [%] | inhibition in vivo at 22.96 mg/kg (Mus musculus [3]) [%] | inhibition in vivo at 11.48 mg/kg (Rattus norvegicus [5]) [%] | inhibition in vivo at 11.48 mg/kg (Rattus norvegicus [6]) [%] | Ratio IC50 (Oryctolagus cuniculus) | Activity (Rattus norvegicus [8]) [mm2] | inhibition in vivo at 10.44 mg/kg (Rattus norvegicus [9]) [%] | Activity (Rattus norvegicus [10]) [mm2] | inhibition in vivo at 10.44 mg/kg (Rattus norvegicus [11]) [%] | inhibition in vivo at 10.44 mg/kg (Rattus norvegicus [12]) [%] | inhibition in vivo at 20.88 mg/kg (Mus musculus [13]) [%]
100 | 560 | 110 | CS(=O)(=O)c1ccc(/C=C2/C(=O)Nc3ccc(Br)cc32)cc1 | 47.2 | 82.8 | 29.4 | 33.3 | 1.1 | 0.44 |  |  |  |  | 
3290 | 3910 | 500 | CS(=O)(=O)c1ccc(/C=C2/C(=O)Nc3ccc([N+](=O)[O-])cc32)cc1 |  |  |  |  | 0.15 |  | 28.6 | 0.81 | 23.5 | 33.3 | 73.2
